Test results published in patent publication US20020119967A1, “Pharmaceutical composition for preventing or treating a disease associated with an excess of IL-12-production” (priority 2000, published 2002).
Where two headings read alike, the source gives them in different places.

Experiments:
Naive Th cells (ThN) = test: Naive T cell differentiation (Th1/Th2) after co-culture with DC matured in presence of PDE4 inhibitors, intracellular IFN-γ/IL-4 staining; assay type: cell-based, human; conditions: DC matured with MF plus 10 μM inhibitor
immature DC [1] = test: LPS plus IFN-γ-induced cytokine production by immature DC; assay type: cell-based, human; conditions: immature DC stimulated with LPS and IFN-γ, 24 h supernatants; for IL-12p70 production / TNF-α production: vs DMSO-treated DC
Experimental: FIG. 1 illustrates the inhibitory effect of PDE 4 inhibitors on LPS plus IFN-γ-induced cytokine production by immature DC. DC (2×10^4 cells/well) were stimulated with LPS and IFN-γ combined with the indicated concentrations of PDE4 inhibitors (Ariflo or Rolipram). Results are expressed as the mean cytokine production in ng/ml of duplicate cultures (24h supernatants). A: IL-12p70; B: TNF-α; C: IL-6. Cytokine production is expressed as ng/ml.
Venous blood from healthy donors is collected by venipuncture in sodium-heparin containing tubes (VT100H; Venoject, Terumo Europe, Leuven, Belgium). Peripheral blood mononuclear cells (PBMC) are isolated by density centrifugation on Lymphoprep (Nycomed, Torshov, Norway). Subsequently, PBMC are centrifuged on a Percoll (Pharmacia, Uppsala, Sweden) gradient consisting of three density layers (1.076, 1.059 and 1.045 g/ml). The light density fraction floating on the middle layer, which contained predominantly monocytes, is seeded in 24-well culture plates (Costar, Cambridge, Mass.) at a density of 5×10^5 cells/well. After 30 min of incubation at 37° C., nonadherent cells are removed; adherent cells are cultured in Iscove's modified Dulbecco's medium (Life Technologies, Paisley, U.K.) containing gentamycin (86 μg/ml; Duchefa, Haarlem, The Netherlands) and 1% FCS (Hyclone, Logan, Utah.) and supplemented with GM-CSF (500 U/ml) and IL-4 (250 U/ml) to obtain DC. At day 3, the media, including the supplements, are refreshed. At day 6, immature CD1a^+CD14^− DC are obtained.
Measurements of IL-12p70 levels in culture supernatants were performed by a specific solid-phase sandwich ELISA OptEI™ human IL-12P70 (Pharmingen San Diego, Calif.). Measurements of IL-6 and TNF-α were performed by ELISA using pairs of specific mAbs and recombinant cytokine standards obtained from BioSource International (Camarillo, Calif.). The limits of detection of these ELISA are as follows: IL-6, 20 pg/ml; IL-12p70, 3 pg/ml; and TNF-α, 20 pg/ml.
In contrast, the production of IL-6 by the immature DC was not affected by any of the inhibitors.

immature DC [2] = test: CD40-induced IL-12 production by immature DC stimulated with J558-CD40L cells; assay type: cell-based, human; conditions: 10 μM inhibitor, J558-CD40L stimulation, 24 h supernatant
Experimental: FIG. 2 illustrates the inhibitory effect of PDE4 inhibitors on CD40-induced IL12 production by immature DC. DC (2×10^4 cells/well) were stimulated with J558-CD40L cells in the presence of 10 μM of the indicated PDE4 inhibitors (Ariflo, Rolipram, Diazepino-indole or Pirazolo [4,3-e] diazepine). Results are expressed as the cytokine production in pg/ml of 24 h supernatant of cell cultures. The data shown are from one representative experiment out of three giving similar results. Venous blood from healthy donors is collected by venipuncture in sodium-heparin containing tubes ([…], Terumo Europe, Leuven, Belgium). Peripheral blood mononuclear cells (PBMC) are isolated by density centrifugation on Lymphoprep (Nycomed, Torshov, Norway). Subsequently, PBMC are centrifuged on a Percoll (Pharmacia, Uppsala, Sweden) gradient consisting of three density layers (1.076, 1.059 and 1.045 g/ml). The light density fraction floating on the middle layer, which contained predominantly monocytes, is seeded in 24-well culture plates (Costar, Cambridge, Mass.) at a density of 5×10^5 cells/well. […]

dendritic cells [3] = test: Expression of cell surface molecules (CD1a, CD86, ICAM-1, CD83) on DC matured in presence of PDE4 inhibitors, flow cytometry; assay type: cell-based, human
From the text: (§1) Dendritic cells were matured for 2 days with LPS in the presence or absence of the PDE4 inhibitors Ariflo or Rolipram and analysed for the expression of cell surface molecules by flow cytometry. In the left corner of each figure the mean fluorescence intensity (Mn).
as §1, with “with the maturation factors TNF-α plus IL-1β (referred to as MF)” for “with LPS”, “Ariflo and” for “Ariflo or”
At day 6, the maturation of CD1a^+ DC was induced by a 2-day exposure to either LPS (250 ng/ml; Difco, Detroit, Mich.) or a combination of the cytokines rhIL-1β (10 ng/ml), and TNF-α (25 ng/ml) both obtained from Pharma Biotechnologie, Hannover, Germany. Maturation was induced in the absence or presence of PDE4 inhibitors (10 μM, unless stated otherwise) or PGE2 (10^−6 M; Sigma, St. Louis,Mass.). Where indicated, DC were kept in non-maturing conditions during 2 days.
The mouse mAbs against the following human molecules were used: CD1a (OKT6; Ortho Diagnostic System, Beerse, Belgium), ICAM-1, CD86 (Pharmingen, San Diego, Calif.), CD83 (HB15a, IgG2b; Immunotech, Marseille, France), followed by FITC-conjugated goat anti-mouse mAb (Jackson Immunoresearch Laboratories, West Grove, Pa.).
The maturation process of DC is associated with the appearance of CD83 and upregulation of co-stimulatory molecules like CD86. The study whether the presence of PDE4 inhibitors during DC maturation could affect the cell surface expression of the DC-associated marker CD1a, the co-stimulatory molecules CD86 and ICAM-1, and the DC maturation marker CD83, therefore the study of the expression of these markers after treatment has been performed.

dendritic cells [4] = conditions: cited from earlier work
[5] = DC matured 2 days with TNF-α plus IL-1β (MF)

Question: With `COc1ccc([C@]2(C#N)CC[C@@H](C(=O)O)CC2)cc1OC1CCCC1` [Ariflo] as the compound, how does the “IFN-γ (%) positive cells” value (Naive Th cells (ThN); Experiment 1) read?
Answer: 4.7%

Question: What about the “IL-4 positive cells (%)” value (Naive Th cells (ThN); Experiment 1) of the same compound?
Answer: 15.1%

Question: And the “IFN-γ (%) positive cells” value (Naive Th cells (ThN); Experiment 2)?
Answer: 29.6%

Question: And the “IL-4 (%) positive cells” value (Naive Th cells (ThN); Experiment 2)?
Answer: 2.0%

Question: And the “IFN-g (%) positive cells” value (Naive Th cells (ThN); Experiment 3)?
Answer: 24.0%

Question: And the “IL-4 (%) positive cells” value (Naive Th cells (ThN); Experiment 3)?
Answer: 6.2%

Question: And the IL-6 production (immature DC [1])?
Answer: not affected

Question: And the IL-12p70 production (immature DC [1])?
Answer: reduced ability to produce

Question: What about the TNF-α production (immature DC [1]) of the same compound?
Answer: reduced ability to produce

Question: And the IL-12 production (immature DC [2])?
Answer: able to inhibit IL-12 production

Question: What about the “expression of cell surface molecules (phenotype of mature DC)” value (“expression of cell surface molecules” below) (dendritic cells [3]; DC matured 2 days with LPS) of the same compound?
Answer: absence of phenotypic effect

Question: What about the “expression of cell surface molecules” value (dendritic cells [3]; [5]) of the same compound?
Answer: absence of phenotypic effect

Question: With `COc1ccc(C2CNC(=O)C2)cc1OC1CCCC1` (stereo not drawn) [Rolipram] as the compound, how does the “IFN-γ (%) positive cells” value (Naive Th cells (ThN); Experiment 1) read?
Answer: 7.2%

Question: What about the “IL-4 positive cells (%)” value (Naive Th cells (ThN); Experiment 1) of the same compound?
Answer: 13.5%

Question: And the “IFN-γ (%) positive cells” value (Naive Th cells (ThN); Experiment 2)?
Answer: 35.4%

Question: What about the “IL-4 (%) positive cells” value (Naive Th cells (ThN); Experiment 2) of the same compound?
Answer: 1.1%

Question: What about the “IFN-g (%) positive cells” value (Naive Th cells (ThN); Experiment 3) of the same compound?
Answer: 24.5%

Question: What about the “IL-4 (%) positive cells” value (Naive Th cells (ThN); Experiment 3) of the same compound?
Answer: 5.7%

Question: What about the IL-6 production (immature DC [1]) of the same compound?
Answer: not affected

Question: And the IL-12p70 production (immature DC [1])?
Answer: reduced ability to produce

Question: And the TNF-α production (immature DC [1])?
Answer: reduced ability to produce

Question: And the IL-12 production (immature DC [2])?
Answer: able to inhibit IL-12 production

Question: What about the “expression of cell surface molecules” value (dendritic cells [3]; DC matured 2 days with LPS) of the same compound?
Answer: absence of phenotypic effect

Question: What about the “expression of cell surface molecules” value (dendritic cells [3]; [5]) of the same compound?
Answer: absence of phenotypic effect

Question: For `CCCCC[C@H](O)/C=C/[C@H]1[C@H](O)CC(=O)[C@@H]1C/C=C\CCCC(=O)O` [prostaglandin E2], which “IL-12 production by dendritic cells” value (dendritic cells [4]; shown in the art) is on record?
Answer: inhibit IL-12 production

Question: Which “IL-12 production by dendritic cells” value (dendritic cells [4]; shown in the art) does the source give for `CC(C)(C)NCC(O)c1ccc(O)c(CO)c1` (stereo not drawn) [salbutamol] here?
Answer: inhibit IL-12 production

Question: For cholera toxin, which “IL-12 production by dendritic cells” value (dendritic cells [4]) is on record?
Answer: inhibit IL-12 production
